Counter-ions that a name gives are not always drawn. Like-named read-outs stand apart in the source and are kept apart here.
How the values were obtained:
[1] = system: carrageenan-induced paw oedema; experiment: Acute oedema induced by carrageenan (anti-inflammatory test, rat paw swelling by plethysmography); type: in vivo; conditions: for inhibition in vivo at 100 mg/kg: Rattus norvegicus, read-out: Acute oedema induced by carrageenan, % of inhibition
Protocol: The anti-inflammatory properties are determined as follows:
The compounds to be tested are given as freshly prepared solutions or suspensions by oral route one hour before injecting the paw with carrageenan, a known inflammatory agent.
The inflammatory agent either in aqueous solution or suspension is then injected into the plantar tissue of the right hind paw of each rat, the left paw remaining untreated and serving as control. Each animal receives for example 0.05 ml of an aqueous solution containing 1 % of carrageenan and 0.9 % of sodium chloride.
4 hours after injection, the importance of swelling is determined by plethysmography and is expressed as a percent of the volume of the control paw.
The anti-inflammatory effect expressed as a percent of inhibition is obtained by comparison between rats treated with the anti-inflammatory agent and a control group of rats.
100 mg/kg of anti-inflammatory agent are administered by oral route.

[2] = system: test animal (left carotid and femoral artery flow, ventricular and aortic pressure); experiment: Cardiovascular properties (flow rates of carotid and femoral artery, ventricular and aortic pressures) in the test animal; type: in vivo; parameters: ventricular and aortic pressures after moderate lowering: unit not given here; conditions: for ventricular and aortic pressures after sharp fall: from 130 mm of Hg
Protocol: Some compounds of this invention also have interesting cardiovascular properties so that they may be used as cerebral, coronary and peripheral vasodilators and hypotension-inducing agents, whereby the hypotension activity may occur primarily or secondarily with respect to the peripheral vasodilatation.
These cardiovascular properties have been found as follows:
After administration of the compound at the hereafter-indicated doses, the following parameters are measured on the test animal: the electrocardiogram, the left ventricular pressure, the amplified telediastolic pressure, the derivative of the ventricular pressure with respect to time (dp/dt), the aortic pressure, the average and pulsatile blood flow of the left carotid and femoral artery.

[3] = 100 mg/kg oral, one hour before carrageenan, 4 hours after injection

CC(=O)Oc1ccccc1C(=O)O [Acetosalicylic acid, reference compound]
inhibition in vivo at 100 mg/kg ([1]; po, 4 h): 0%

CCNS(=O)(=O)c1cccnc1N1CCN(C)CC1 [Example 4, 2-(4'-methyl-1'-piperazinyl)-pyridine-3-ethylsulfonamide]
inhibition in vivo at 100 mg/kg [1, 3]: 50%

CCN(CC)S(=O)(=O)c1cccnc1N1CCN(C)CC1 [Example 5, 2-(4'-methyl-1'-piperazinyl)-pyridine-3-diethylsulfonamide dihydrochloride]
inhibition in vivo at 100 mg/kg [1, 3]: 44%

CCNS(=O)(=O)c1ccc(N2CCN(C)CC2)nc1 [Example 11, 2-(4'-methyl-1'-piperazinyl)-pyridine-5-ethylsulfonamide]
inhibition in vivo at 100 mg/kg [1, 3]: 42.4%

CN1CCN(c2ncccc2C#N)CC1 [Example 14, 2-(4'-methyl-1'-piperazinyl)-3-cyanopyridine hydrochloride]
inhibition in vivo at 100 mg/kg [1, 3]: 63.2%

CNC(=O)c1cccnc1N1CCN(C)CC1 [Example 19, 2-(4'-methyl-1'-piperazinyl)-pyridine-3-methylcarboxamide]
inhibition in vivo at 100 mg/kg [1, 3]: 51.2%

CCNC(=O)c1cccnc1N1CCN(C)CC1 [Example 21, 2-(4'-methyl-1'-piperazinyl)-pyridine-3-ethylcarboxamide]
inhibition in vivo at 100 mg/kg [1, 3]: 44.4%

CC(C)NC(=O)c1cccnc1N1CCN(C)CC1 [Example 22, 2-(4'-methyl-1'-piperazinyl)-pyridine-3-isopropylcarboxamide]
inhibition in vivo at 100 mg/kg [1, 3]: 40%

CN1CCN(c2ccc(C#N)cn2)CC1 [Example 23, 2-(4'-methyl-1'-piperazinyl)-5-cyanopyridine]
inhibition in vivo at 100 mg/kg [1, 3]: 48.8%

CN1CCN(c2ccc(C(=O)N(C)C)cn2)CC1 [Example 25, 2-(4'-methyl-1'-piperazinyl)-5-dimethylcarboxamide]
inhibition in vivo at 100 mg/kg [1, 3]: 28.8%

CC(C)NC(=O)c1ccc(N2CCN(C)CC2)nc1 [Example 27, 2-(4'-methyl-1'-piperazinyl)-5-isopropylcarboxamide]
inhibition in vivo at 100 mg/kg [1, 3]: 32%

CN1CCN(c2ccncc2S(N)(=O)=O)CC1 [Example 28, 4-(4'-methyl-1'-piperazinyl)-pyridine-3-sulfonamide]
duration of activity on / increase of the carotid and femoral flow rates ([2]; 2 mg/kg): more than 5 min
time to return of ventricular and aortic pressures to the starting values / reversal of lowering ([2]; 2 mg/kg): ≤ 2 min
ventricular and aortic pressures after moderate lowering ([2]; 2 mg/kg, from 160 mm of Hg): 100
increase of the femoral flow rate ([2]; 2 mg/kg, maximum): 100%
increase of the carotid flow rate ([2]; 2 mg/kg, maximum where stated): 150%
phenomena (flow rates and pressures) compared with 2 mg/kg ([2]; 4 mg/kg): The same phenomena occur
time to return of pressures to the starting values ([2]; 4 mg/kg): 40 min
ventricular and aortic pressures after lowering ([2]; 4 mg/kg, from 160 mm of Hg): 70 mm of Hg
phenomena (flow rates and pressures) compared with 4 mg/kg ([2]; 8 mg/kg): identical phenomena are observed
time to return of pressures to their starting value ([2]; 8 mg/kg): 50 min

CNS(=O)(=O)c1cnccc1N1CCN(C)CC1 [Example 29, 4-(4'-methyl-1'-piperazinyl)-pyridine-3-methylsulfonamide]
duration of increase of the femoral flow rate ([2]; 2 mg/kg): less than 5 min
increase of the femoral flow rate ([2]; 2 mg/kg, maximum): 80%
duration of increase of the carotid and femoral flow rates ([2]; 4 mg/kg): 10 min
modification of the pressures ([2]; 4 mg/kg): slight reflex modification of the pressures
increase of the carotid flow rate ([2]; 4 mg/kg, maximum where stated): 120%
increase of the femoral flow rate ([2]; 4 mg/kg, maximum where stated): 80%
increase of the carotid flow rate ([2]; 10 mg/kg): 300%
phenomena (flow rates and pressures) compared with 4 mg/kg ([2]; 10 mg/kg): identical phenomena occur which are however stronger and of longer duration

CCN(CC)S(=O)(=O)c1cnccc1N1CCN(C)CC1 [Example 32, 4-(4'-methyl-1'-piperazinyl)-pyridine-3-diethylsulfonamide]
time to fall of cardiac and peripheral pressures ([2]; 2 mg/kg): ≤ 45 s
cardiac and peripheral pressures on recovery ([2]; 2 mg/kg, after 5 minutes): 135 mm of Hg
cardiac and peripheral pressures after fall ([2]; 2 mg/kg, from 150 mm of Hg): 75 mm of Hg
increase of the carotid flow rate ([2]; 2 mg/kg, maximum where stated): 60%
duration of hypotension / fall of pressure ([2]; 4 mg/kg): more than 20 min
time to return of pressures to the starting values ([2]; 4 mg/kg): > 70 min
pressure on return to the starting values ([2]; 4 mg/kg, after 70 minutes): 130 mm of Hg
pressure in moderate hypotension ([2]; 4 mg/kg, from 135 mm of Hg): 75 mm of Hg
inhibition in vivo at 100 mg/kg [1, 3]: 44.8%

CC(C)NS(=O)(=O)c1cnccc1N1CCN(C)CC1 [Example 33, 4-(4'-methyl-1'-piperazinyl)-pyridine-3-isopropylsulfonamide]
duration of increase of the average carotid flow rate ([2]; 2 mg/kg): 5 min
increase of the average carotid flow rate ([2]; 2 mg/kg): slight increase
time the carotid flow rate remains high compared to control values ([2]; 4 mg/kg): 10 min
time to increase of the carotid flow rate ([2]; 4 mg/kg): within two minutes
time to fall of femoral flow rate to the starting values ([2]; 4 mg/kg, after injection): ≤ 2 min
increase of the carotid flow rate ([2]; 4 mg/kg, maximum where stated): 300%
increase of the femoral flow rate ([2]; 4 mg/kg, maximum where stated): 200%

CN1CCN(CCNS(=O)(=O)c2cnccc2N2CCN(C)CC2)CC1 [Example 38, 4-(4'-methyl-1'-piperazinyl)-pyridine-3-(4"-methyl-1"-piperazinyl)-ethylsulfonamide]
activity on the carotid and femoral flow rates ([2]; 2 mg/kg): slight and breaf
duration of activity on / increase of the carotid and femoral flow rates ([2]; 2 mg/kg): 5 min
duration of action on the carotid and femoral flow rates ([2]; 4 mg/kg and 8 mg/kg): 10 min
increase of the average flow rates (carotid and femoral) ([2]; 4 mg/kg and 8 mg/kg): 100%
Acute oedema induced by carrageenan, % of inhibition [1, 3]: 60.8%

COCCNS(=O)(=O)c1cnccc1N1CCN(C)CC1 [Example 39, 4-(4'-methyl-1'-piperazinyl)-pyridine-3-methyoxyethylsulfonamide]
time to return of ventricular and aortic pressures to the starting values / reversal of lowering ([2]; 2 mg/kg): less than 3 min
ventricular and aortic pressures after sharp fall ([2]; 2 mg/kg): 90 mm of Hg
increase of the carotid flow rate ([2]; 2 mg/kg, maximum where stated): 75%
duration of hypotension / fall of pressure ([2]; 4 mg/kg): 2 min
increase of the peripheral flow rates ([2]; 4 mg/kg): 50%
time to return of pressures to the starting values ([2]; 4 mg/kg): 30 min
ventricular and aortic pressures after sharp fall ([2]; 4 mg/kg): 40 mm of Hg
inhibition in vivo at 100 mg/kg [1, 3]: 55.2%

CCOCCNS(=O)(=O)c1cnccc1N1CCN(C)CC1 [Example 40, 4-(4'-methyl-1'-piperazinyl)-pyridine-3-ethoxyethylsulfonamide]
duration of activity on / increase of the carotid and femoral flow rates ([2]; 2 mg/kg): less than 5 min
variation of the cardiac and peripheral pressures ([2]; 2 mg/kg): without variation
increase of the femoral flow rate ([2]; 2 mg/kg, maximum): 50%
increase of the carotid flow rate ([2]; 2 mg/kg, maximum where stated): 300%
duration of hypotension / fall of pressure ([2]; 4 mg/kg): 3 min
increase of the carotid flow rate ([2]; 4 mg/kg): moderate increase of the carotid flow rate remains after return of the pressure rates to normal conditions
return of blood pressure to the starting values ([2]; 4 mg/kg): quick return to the starting values
blood pressure after moderate fall ([2]; 4 mg/kg, from 150 mm of Hg): 90 mm of Hg
inhibition in vivo at 100 mg/kg [1, 3]: 60%

CN(C)C=NS(=O)(=O)c1cnccc1N1CCN(C)CC1 [Example 48, 4-(4'-methyl-1'-piperazinyl)-pyridine-3-dimethylaminomethinesulfonamide]
duration of activity on / increase of the carotid and femoral flow rates ([2]; 2 mg/kg): 5 min
increase of the carotid and femoral flow rates ([2]; 2 mg/kg): 100%
duration of increase of the carotid and femoral flow rates ([2]; 4 mg/kg): 10 min
fall of the ventricular and aortic pressures ([2]; 4 mg/kg): temporary and moderate fall
increase of the carotid and femoral flow rates ([2]; 4 mg/kg, compared with 2 mg/kg): stronger and longer
phenomena (flow rates and pressures) compared with 4 mg/kg ([2]; 8 mg/kg): Identical phenomena are observed

O=C(O)c1ccccc1Nc1cccc(C(F)(F)F)c1 [Flufenamic acid, reference compound]
inhibition in vivo at 100 mg/kg [1, 3]: 34%

CN1c2ccccc2Sc2ccc(CC(=O)O)cc21 [Methiazinic acid, reference compound]
inhibition in vivo at 100 mg/kg [1, 3]: 46%

O=C(O)c1cccnc1Nc1cccc(C(F)(F)F)c1 [Niflumic acid, reference compound]
inhibition in vivo at 100 mg/kg [1, 3]: 32%

CCCCC1C(=O)N(c2ccccc2)N(c2ccccc2)C1=O [Phenylbutazone, reference compound]
inhibition in vivo at 100 mg/kg [1, 3]: 41%

From patent US3991057A, “C-Piperazino-pyridine sulfonamides” (A. Christiaens Societe Anonyme, priority 1970, dated 1976)
